Molecules are shown by their SMILES. Where two headings read alike, the source gives them in different places. Some results are limits rather than exact numbers.

In experiment [1] the target is T1, Neisseria meningitides alanine aminopeptidase (NmAPN) (Neisseria meningitidis, UniProt Q9JYV4).
T1 sequence (Q9JYV4 1-867): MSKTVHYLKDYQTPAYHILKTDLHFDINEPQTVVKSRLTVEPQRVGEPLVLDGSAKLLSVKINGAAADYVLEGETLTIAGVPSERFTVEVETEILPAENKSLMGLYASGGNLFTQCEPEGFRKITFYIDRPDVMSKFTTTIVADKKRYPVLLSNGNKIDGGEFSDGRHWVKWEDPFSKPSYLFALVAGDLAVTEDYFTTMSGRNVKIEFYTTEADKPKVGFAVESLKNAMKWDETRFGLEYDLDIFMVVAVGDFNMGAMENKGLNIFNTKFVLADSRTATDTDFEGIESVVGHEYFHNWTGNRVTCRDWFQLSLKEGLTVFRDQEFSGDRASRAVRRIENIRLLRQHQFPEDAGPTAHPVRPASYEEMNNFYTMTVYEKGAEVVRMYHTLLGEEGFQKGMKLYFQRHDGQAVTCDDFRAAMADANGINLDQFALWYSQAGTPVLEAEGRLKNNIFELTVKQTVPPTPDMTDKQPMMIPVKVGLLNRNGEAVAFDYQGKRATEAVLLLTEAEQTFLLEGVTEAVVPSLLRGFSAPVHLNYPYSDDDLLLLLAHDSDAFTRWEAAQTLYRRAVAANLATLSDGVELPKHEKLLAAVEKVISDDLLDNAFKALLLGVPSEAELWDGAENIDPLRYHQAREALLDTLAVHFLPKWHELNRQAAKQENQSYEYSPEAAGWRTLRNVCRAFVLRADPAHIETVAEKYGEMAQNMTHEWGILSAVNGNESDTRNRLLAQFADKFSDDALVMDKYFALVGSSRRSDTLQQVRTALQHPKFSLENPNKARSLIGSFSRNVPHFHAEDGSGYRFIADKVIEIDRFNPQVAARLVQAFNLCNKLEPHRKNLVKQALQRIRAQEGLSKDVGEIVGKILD
The experiment is classed as biochemical. The note with it: substrate 3 μM, enzyme 1.37 nM, pH 7.5.

A further experiment concerns the target NmAPN (Neisseria meningitidis, UniProt Q9JYV4). The experiment can be described thus: biochemical. The experiment is classed as biochemical, Neisseria meningitides. The note with it: for mode of inhibition: Lineweaver-Burk plot.
Experiment [2] deals with T1, Neisseria meningitides alanine aminopeptidase (NmAPN). The experiment can be described thus: Kinetic parameters determination. It counts as biochemical. As to conditions: ACC substrate, 50 mM Tris-HCl pH 7.5, 37 °C, enzyme 1.13 nM.
Another experiment addresses porcine kidney APN. As to conditions: cited from earlier work.
The target in the next experiment is PfAPN. The note with it: Plasmodium falciparum APN; cited from earlier work.

Turning to `N[C@@H](Cc1ccc(OCC(=O)O)cc1)C(=O)O` [4(1-carboxymethoxy)-L-Phe], the “hydrolysis of ACC substrate by NmAPN (in words)” value in experiment [1] is listed as “not hydrolyzed”.

By IC50 is commonly meant the concentration that inhibits the measured activity by half. A high value points to a need for much substance. By Ki is commonly meant the equilibrium dissociation constant of an inhibitor or competing ligand from its target. On NmAPN, `N=C(N)NCCCC(N)P(=O)(O)O` (stereo not shown) [Compound 1] had an IC50 of 1910 ± 180 nM and a Ki of 1460 ± 140 nM.

As to `NC(CCc1ccccc1)P(=O)(O)O` (stereo not shown) [Compound 2], inhibition against NmAPN was half-maximal at 1660 ± 70 nM (IC50).

On to `NC(CCc1ccccc1)[PH](=O)O` (stereo not shown) [Compound 3], for which it took 1910 ± 50 nM to reach half-maximal inhibition at NmAPN (IC50).

As a reminder, the Km is the substrate concentration at which the rate is half of its maximum. On to `NC(=O)Cc1cc(=O)oc2cc(NC(=O)[C@@H](N)Cc3ccc(Br)cc3)ccc12` [Compound 4-Br-L-Phe], for which, in experiment [2], the Km was over 250 µM.

Turning to `NC(CCc1ccccc1)P(=O)(O)CC(Cc1ccccc1)C(=O)O` (stereo not shown) [Compound 4], at NmAPN, the IC50 is 397 ± 24 nM; the Ki was 302 ± 18 nM; the mode of inhibition result was “reversible, competitive and tight-binding inhibitors”. Moreover, at porcine kidney APN, the Ki is 276 nM.

In the case of `NC(CCc1ccccc1)P(=O)(O)CC(Cc1ccc(O)cc1)C(=O)O` (stereo not shown) [Compound 5], at NmAPN, the IC50 is 70 ± 7 nM; the mode of inhibition entry was “reversible, competitive and tight-binding inhibitors”. On porcine kidney APN, the Ki was 36 nM. Further, on PfAPN, the Ki is 232 nM.

With `NC(CCc1ccccc1)P(=O)(O)CNC(Cc1ccc(O)cc1)C(=O)O` (stereo not shown) [Compound 6], inhibition against NmAPN (L-Arg-ACC 20 μM, enzyme 0.85 nM, 30 min preincubation, 37 °C) was half-maximal at 3290 ± 150 nM (IC50). Besides, the Ki on NmAPN (calculated from IC50 by Cheng-Prusoff equation, L-Arg-ACC 20 μM) was 2510 ± 110 nM.

Consider `NCC(=O)Nc1ccc2c(CC(N)=O)cc(=O)oc2c1` [Gly], for which the Km in experiment [2] was over 250 µM.

Turning to `CC[C@H](N)C(=O)Nc1ccc2c(CC(N)=O)cc(=O)oc2c1` [L-Abu], the “rate of hydrolysis, proportional to kcat/Km, as percentage of the best substrate cleavage (L-hArg-ACC, 100%)” value in experiment [1] is given as 20–40%.

Consider `N=C(NCCC[C@H](N)C(=O)Nc1ccc2c(CC(N)=O)cc(=O)oc2c1)N[N+](=O)[O-]` [L-Arg(NO2)], for which the “rate of hydrolysis, proportional to kcat/Km, as percentage of the best substrate cleavage (L-hArg-ACC, 100%)” value in experiment [1] was 38.5–74.0%.

Take `NC(=O)CC[C@H](N)C(=O)Nc1ccc2c(CC(N)=O)cc(=O)oc2c1` [L-Gln]: the Km in experiment [2] is over 250 µM.

Consider `NC(=O)Cc1cc(=O)oc2cc(NC(=O)[C@@H](N)CCC(=O)OCc3ccccc3)ccc12` [L-Glu(Bzl)], for which, in experiment [1], the “rate of hydrolysis, proportional to kcat/Km, as percentage of the best substrate cleavage (L-hArg-ACC, 100%)” value is reported as 38.5–74.0%.

In the case of `NCCC(=O)O` [β-Ala], in experiment [1], the “hydrolysis of ACC substrate by NmAPN (in words)” value is on record as “not hydrolyzed”.

These data come from paper PMC3557594 (Biochimie, 2012).
